Converted amounts (≈) assume the structure as drawn. Read-outs that look alike come from different tables or passages of the source.

What is called IC50 is the concentration that gives 50% inhibition.

For one experiment, the system named is B. subtilis 168. Nature of the experiment: microbe, parasite or virus in culture. The format is cell-based. On the procedure: (§1) The MIC values for Bac(1–10), Bac(1–10, R/Y), Bac(1–10, R/Y)-Cn-TPP, TPP-C10-Bac(1–10, R/Y), and Onc112 were determined via LB broth microdilution, as recommended by CLSI in the Methods for Dilution Antimicrobial Susceptibility Tests for Bacteria that Grow Aerobically, Approved Standard, 9th ed., CLSI document M07-A9, using in-house-prepared panels. The compounds were diluted in a 96-well microtiter plate to final concentrations ranging from 0.1 to 100 µM in a 200 µL aliquot of the bacterial suspension, followed by incubation at 37 °C for 18 h. The cell concentration was estimated according to the absorbance (A600). The measurements were performed with a VICTOR X5 Multilabel Plate Reader (PerkinElmer, Waltham, MA, USA). The following bacterial strains were used: E. coli BW25113, E. coli JW0368 ΔsbmA, B. subtilis 168, and B. subtilis CFR [39].

Another experiment has as its system B. subtilis CFR. Nature of the experiment: microbe, parasite or virus in culture. The note with it: 18 h. It counts as cell-based. On the procedure:
as §1

For another experiment, the system named is E. coli BW25113. Nature of the experiment: microbe, parasite or virus in culture. The format is cell-based. The note with it: E. coli BW25113, 37 °C, 18 h. The protocol: as §1
The subject of another experiment is E. coli JW0368 ΔsbmA. Briefly: microbe, parasite or virus in culture. The note with it: for MIC: 18 h. It counts as cell-based. On the procedure: as §1
The next experiment has as its system HEK293T. Nature of the experiment: cells. It counts as cell-based, human. The note with it: 72 h. The protocol: (§2) The cytotoxicity of the substances under study was tested using the MTT (3-(4,5-dimethylthiazol-2-yl)-2,5-diphenyltetrazolium bromide) assay with some modifications. The detailed procedure for the MTT assay is given in the Supplementary Materials (Section S5).
(§3) Two thousand five hundred cells per well for the MCF7, HEK293T, and A549 cell lines or 4000 cells per well for the VA13 cell line were plated in 135 µL of DMEM-F12 media with 10% FBS (both Gibco, Waltham, MA, USA) in a 96-well plate and were incubated in a 5% CO2 incubator for the first 16 h, without treatment. Then 15 µL of media-DMSO solutions of the tested substances were added to the cells (the final DMSO concentrations in the media were 1% or less), and the cells were treated for 72 h with 25 nM–50 µM (eight dilutions) of the tested substances (triplicate each). Serial dilutions of DMSO and doxorubicin were used as controls. The MTT reagent (Paneco LLC, Moscow, Russia) was then added to the cells at a final concentration of 0.5 g/L (10× stock solution in PBS was used) and incubated for 2.5 h at 37 °C in the incubator under an atmosphere of 5%
(§4) CO2. The MTT solution was then discarded, and 140 µL of DMSO (PharmaMed LLC, Krasnodar, Russia) was added. The plates were swayed on a shaker (60 rpm) to dissolve the formazan. The absorbance was measured using the VICTOR X5 Multilabel Plate Reader (PerkinElmer, Wa l th a m, MA, USA) at a wavelength of 565 nm (in order to measure formazan concentration). The resu l ts were used to construct a dose-response graph and to estimate IC50 values.
(§5) Figure S11.The dependencies of viability of cells after treatment by tested compounds.
(§6) (1 picture or pasted object on this page, not shown here)

The subject of a further experiment is MCF7. Nature of the experiment: cells. It counts as cell-based, human. On the procedure:
as §2, §3, §4, §5, §6

The next experiment concerns VA13. Nature of the experiment: cells. It counts as cell-based, human. On the procedure: as §2, §3, §4, §5, §6
A further experiment deals with A549. Briefly: cells. On the procedure: as §2, §3, §4, §5, §6
Experiment [1] has as its system E. coli JW5503 (∆tolC) (KanS) pDualrep2. Briefly: pDualrep2 double-reporter agar plate test. The format is cell-based. The note with it: 1 µL of 10 mM solution on agar plate. On the procedure: The “pDualrep2” system was used to evaluate the mechanism of the antimicrobial action of the synthesized compounds. This system is based on the hypersensitive strain E. coli JW5503 (∆tolC) (KanS) transformed with the “pDualrep2” plasmid, which allows one to sort out suppressors of protein synthesis or SOS response inducers. Briefly, 1 µL of 10 mM water solutions of Bac(1–10), Bac(1–10, R/Y), Bac(1–10, R/Y)-Cn-TPP, TPP-C10-Bac(1–10, R/Y), and Onc112 were applied onto the agar plate that already contained a layer of the reporter strain E. coli JW5503 (∆tolC) (KanS) pDualrep2, and then the plate was incubated overnight at 37 °C. The agar plate was scanned using the ChemiDoc^TM Imaging System (Bio-Rad Laboratories, Hercules, CA, USA), containing two channels, “Cy3-blot” (553/574 nm; green pseudocolor) for Turbo Red Fluorescent Protein (TurboRFP) detection and “Cy5-blot” (588/633 nm; red pseudocolor) for Katushka2S fluorescence. […] Levofloxacin (LEV; 50 μg/mL, 1 μL) and erythromycin (ERY; 5 mg/mL, 1 μL) were utilized as positive controls for DNA and protein synthesis inhibitors, respectively.

For another experiment, the system named is 70S E. coli ribosome. Briefly: Competition-binding assay, displacement of BODIPY-Bac(1–10), fluorescence anisotropy. The note with it: CI (α = 0.05), read-out: apparent dissociation constant (KD). The protocol: 70S ribosomes were isolated from E. coli MRE600 cells according to a published procedure. The binding of BODIPY-Bac(1–10) to 70S E. coli ribosomes was performed according to the following procedure. BODIPY-Bac(1–10) (16 nM) was incubated with ribosomes (from 0.5 nM to 2000 nM) for 2 h at 26 °C in a buffer containing 20 mM of HEPES-KOH (pH 7.5), 50 mM of NH4Cl, 10 mM of Mg(CH3COO)2, 4 mM of β-mercaptoethanol, and 0.05% Tween-20. The binding affinities of peptides 1 and 2, their TPP analogs 3–5, as well as the control compounds for the E. coli ribosome were analyzed via a competition-binding assay using fluorescently labeled BODIPY-Bac(1–10) or BODIPY-ERY, as described before in [38, 54]. The fluorescent compound (16 nM) was mixed with ribosomes (84 nM for BODIPY-Bac(1–10) and 46 nM for BODIPY-ERY) in the buffer. Solutions of the tested compounds were added to the obtained complexes to final concentrations ranging from 0.01 to 100 µM. The mixtures were incubated for 2 h at 26 °C, and then the values of fluorescence anisotropy were measured with a VICTOR X5 Multilabel Plate Reader (PerkinElmer, Waltham, MA, USA) using a 384-well plate. The excitation wavelength was 485 nm, and the emission wavelength was 535 nm. From the data obtained, apparent dissociation constants were calculated.
(Fluorescence polarisation rises when a labelled molecule tumbles more slowly, as on binding a larger partner.)

Experiment [2] relates to bacterial translation (E. coli S30 extract). Nature of the experiment: In vitro translation inhibition of firefly luciferase mRNA, E. coli S30 extract. The format is biochemical. The note with it: 30 µM. On the procedure: Briefly, in vitro-transcribed firefly luciferase mRNA (fluc) was translated using the E. coli S30 Extract System for Linear Templates (Promega, Madison, WI, USA). Reaction mixtures (with a 5 μL total volume) supplemented with 0.1 mM of a mixture of all canonical amino acids, 4 U of RiboLock RNase Inhibitor (Thermo Fisher Scientific, Waltham, MA, USA), and 0.1 mM of D-luciferin (Sigma-Aldrich, Burlington, MA, USA) were pre-incubated at RT for 5 min after the addition of the tested compounds at a final concentration of 30 µM. Then, 50 ng of the mRNA was added to each reaction tube, and the mixtures were immediately subjected to continuous chemiluminescence measurements using the VICTOR X5 Multilabel Plate Reader (PerkinElmer, Waltham, MA, USA) at 37 °C for 30 min. The maximal rates of the firefly luciferase (Fluc) accumulation were calculated using the OriginPro 7.5 software. The values were normalized to a positive control (0.3% DMSO, assigned a value of 100%).

The test system of a further experiment is B. subtilis. Nature of the experiment: Membrane potential with fluorescent probe diS-C3-(5). The format is cell-based. The note with it: 50 µM, diS-C3-(5) fluorescence. The protocol: The membrane potential of B. subtilis was assessed by measuring the fluorescence emitted by the potential-dependent probe, diS-C3-(5). Bacterial cells derived from the overnight culture of B. subtilis were inoculated into a fresh LB medium and allowed to grow for 24 h until reaching an optical density of 0.8 at 600 nm. Subsequently, the bacteria were subjected to a 20-fold dilution in a buffer comprising 100 mM of KCl and 10 mM of Tris, adjusted to a pH of 7.4. Fluorescence measurements were conducted at 670 nm (with excitation at 630 nm) using a Fluorat-02-Panorama fluorimeter manufactured by Lumex Instruments in St. Petersburg, Russia.

Where [3] appears, read: B. subtilis-CFR (chloramphenicol-resistant), 37 °C.
Where [4] appears, read: HEK293T, MTT, read-out: IC50 (50% inhibition of viability of cells).
[5] abbreviates: MCF7, 72 h, MTT, read-out: IC50 (50% inhibition of viability of cells).
Where [6] appears, read: VA13, 72 h, MTT, read-out: IC50 (50% inhibition of viability of cells).
Where [7] appears, read: read-out: IC50 (50% inhibition of viability of cells), A549, 72 h, MTT.

For the molecule `CCCC[P+](c1ccccc1)(c1ccccc1)c1ccccc1` [C4-TPP, reference compound], the MIC with B. subtilis 168 (B. subtilis 168, 37 °C, 18 h) is greater than 100 µM; with B. subtilis CFR (setting [3]), greater than 100 µM; against E. coli BW25113 it was greater than 100 µM; with E. coli JW0368 ΔsbmA (E. coli ∆sbmA, 37 °C), greater than 100 µM. For the same molecule, the IC50 in the experiment with HEK293T (setting [4]) was 2.9 ± 0.5 µM; in the experiment on MCF7 (setting [5]), 8 ± 2 µM; in the experiment with VA13 (setting [6]), 11 ± 2 µM; in the experiment with A549 (setting [7]), 6.2 ± 0.9 µM.
Take `CCCCCCCCCC[P+](c1ccccc1)(c1ccccc1)c1ccccc1` [C10-TPP, reference compound]: the “inhibitory effect on growth of bacterial cells” value (shortened to “inhibitory effect on growth”) in experiment [1] is “caused a large growth inhibition zone”. Besides, the “reporter induction (Katushka2S red pseudocolor = protein synthesis inhibition)” value in [1] is recorded as “did not induce the reporters”. Also, the MIC in the experiment with B. subtilis 168 (B. subtilis 168, 37 °C, 18 h) was 1.6 µM; against B. subtilis CFR (setting [3]), 0.8 µM; in the experiment with E. coli BW25113 it was 50 µM; in the experiment with E. coli JW0368 ΔsbmA (E. coli ∆sbmA, 37 °C), 50 µM. Besides, the “comparison of MIC values, E. coli ΔsbmA versus wild type” value in the experiment on E. coli JW0368 ΔsbmA (MIC values of Table 1) is “the same”. Besides, the IC50 was less than 0.16 µM in the experiment on HEK293T (setting [4]), 0.25 ± 0.07 µM in the experiment with MCF7 (setting [5]), less than 0.16 µM in the experiment with VA13 (setting [6]) and less than 0.16 µM in the experiment with A549 (setting [7]).
In the case of `COc1cccc2c1C(=O)c1c(O)c3c(c(O)c1C2=O)C[C@@](O)(C(=O)CO)C[C@@H]3O[C@H]1C[C@H](N)[C@H](O)[C@H](C)O1` [Doxorubicin, reference compound], the IC50 in the experiment on HEK293T (Homo sapiens, HEK-293T, HEK293T, MTT, read-out: IC50 (50% inhibition of viability of cells)) was less than 1.6 µM; with MCF7 (Homo sapiens, MCF7, 72 h, MTT, read-out: IC50 (50% inhibition of viability of cells)), 1.7 ± 0.2 µM; with VA13 (Homo sapiens, VA-13, VA13, 72 h, MTT, read-out: IC50 (50% inhibition of viability of cells)), 1.2 ± 0.3 µM; in the experiment with A549 (Homo sapiens, A549, 72 h, read-out: IC50 (50% inhibition of viability of cells)), 1.2 ± 0.1 µM.
As to `CC[C@H]1OC(=O)[C@H](C)[C@@H](O[C@H]2C[C@@](C)(OC)[C@@H](O)[C@H](C)O2)[C@H](C)[C@@H](O[C@@H]2O[C@H](C)C[C@H](N(C)C)[C@H]2O)[C@](C)(O)C[C@@H](C)C(=O)[C@H](C)[C@@H](O)[C@]1(C)O` [ERY, erythromycin, reference compound], the “reporter induction (Katushka2S red pseudocolor = protein synthesis inhibition)” value in [1] is “red pseudocolor reporter induction was observed”. Further, the MIC against B. subtilis 168 (Bacillus subtilis, B. subtilis 168, 37 °C, 18 h) is less than 0.1 µM; against B. subtilis CFR (Bacillus subtilis, B. subtilis-CFR (chloramphenicol-resistant), 37 °C), less than 0.1 µM; against E. coli BW25113 (Escherichia coli) it was 170 µM (≈ 125 µg/mL); in the experiment with E. coli JW0368 ΔsbmA (Escherichia coli), 170 µM (≈ 125 µg/mL).
With H-RRIRPRPPRL-OH [Compound 1, Bac(1–10)], the Kd in the experiment with 70S E. coli ribosome is 1.4 ± 0.1 µM. Further, the “inhibition of bacterial translation of firefly luciferase (Fluc) mRNA” value in experiment [2] is “practically did not inhibit”. In experiment [1], the “inhibitory effect on growth” value was “did not exhibit any antibacterial activity”. The MIC with B. subtilis 168 (168, 18 h) is on record as greater than 50 µM; with B. subtilis CFR (CFR) it was greater than 50 µM. Further, in the experiment on B. subtilis, the “effect on membrane potential of B. subtilis” value is “did not affect the membrane potential”.
As for “H-RRIRPRPPYL-OH [Compound 2, Bac(1–10, R/Y)]”, the Kd in the experiment on 70S E. coli ribosome is 1 ± 0.1 µM. The “inhibition of bacterial translation of firefly luciferase (Fluc) mRNA” value in experiment [2] was “practically did not inhibit”. In addition, the “inhibitory effect on growth” value in [1] is given as “did not exhibit any antibacterial activity”. In addition, the MIC in the experiment with E. coli BW25113 was greater than 100 µM; with E. coli JW0368 ΔsbmA (E. coli ∆sbmA, 37 °C), greater than 100 µM. For the same molecule, the “effect on membrane potential of B. subtilis” value with B. subtilis was “did not affect the membrane potential”. Besides, the IC50 in the experiment on HEK293T was greater than 50 µM; with MCF7 (72 h), greater than 20 µM; in the experiment with VA13 (72 h), greater than 50 µM; with A549 (72 h) it was greater than 50 µM.
